In PubChem BioAssay AID2060484 (Molecular Pharmacology Branch, DTP, NCI, 2025):
Where “and” joins values, the source holds several entries; their conditions need not be identical. Equal entries are not always repeated.

Test system: SUM149PT spheroids with HUVEC/MSC, viability
Test: Anticancer human tumor SUM149PT cell line growth inhibition [GQUAD];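 also: spheroids exposed to drugs for seven days before readout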;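 as to viability, T/C: percent viability relative to DMSO vehicle control taken as 100%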
Settings: for viability, T/C: stronger effect = lower value; active = viability on the fitted dose curve at most 10% of control; inactive = the rest
From the text: DNA G-quadruplex Stabilizer Agents in Combinations in Complex Spheroids
A high-throughput screen of multi-cell type tumor spheroids was designed to identify active combinations of DNA G-quadruplex stabilizer agents and targeted small molecules. Complex spheroids include a stromal component modeled by human endothelial cells (HUVEC) and fibroblasts modeled by human mesenchymal stem cells (MSCs). The concentration ranges selected for each drug and investigational agent were based upon clinically achievable concentrations if the clinical Cmax of the agent was known.
Compounds. The drugs and investigational agents: pidnarulex (CX-5461; NSC782164), APTO-253 (NSC789042), BRACO-19 (NSC847499), peposertib (NSC802822), ceralasertib (NSC780249), elimusertib (NSC800525), camonsertib (NSC841442), AZD-1390 (NSC803789), olaparib (NSC753686), talazoparib (NSC767125), ART-558 (NSC835418), sotorasib (NSC818433), MRTX-1133 (NSC836407), SN-38 (NSC673596), topotecan (NSC609699), etoposide (NSC141540), doxorubicin (NSC123127), gemcitabine (NSC613327), 5-fluorouracil (NSC19893), paclitaxel (NSC125973), vemurafenib (NSC761431), panobinostat (NSC761190), R-306465 (JNJ-16241199; NSC773264), adavosertib (NSC754352), TP-3654 (NSC805149), carboplatin (NSC241240), KSQ-4279 (NSC840948), and staurosporine (NSC755774) were obtained from the National Cancer Institute (NCI) Developmental Therapeutics Program Chemical Repository (34). The FDA-approved anticancer drug set is available from the NCI Developmental Therapeutics Program. […] The stock solutions were prepared in dimethyl sulfoxide (DMSO, Sigma-Aldrich, St. Louis, MO, cat. D2650) at 800-fold the tested concentration and stored at -70 degrees C prior to their use. All drugs and investigational agents were tested over a range starting from a high concentration at or near the clinical Cmax and decreasing in half-log increments. If the clinical Cmax for an agent had not been determined, the highest concentration tested was 10 microM.
2.3 Cell Culture. All cells were maintained in an incubator at 37 degrees C and 5% CO2 with 95% humidity. The PDC lines were cultured according to standard operating procedures established by the NCI PDMR. All PDCs were thawed and cultured in Matrigel-coated flasks prepared with a working solution of 1X Ham's F-12 nutrient mix, without supplementation (Invitrogen, cat. 11765054), 100 U/mL penicillin-streptomycin (Invitrogen, cat. 15140122), and 2.5% Matrigel (Corning Inc., cat. 354248) for the first three passages. The 857933-349-R-J2-PDC line was cultured in 6C/Colon 1B media, which includes advanced DMEM/F-12 (Thermo Fisher Scientific, cat. 12634028), 10 mM HEPES (Thermo Fisher Scientific, cat. 15630080), 1X GlutaMAX supplement (Thermo Fisher Scientific, cat. 35050061), 0.1 mg/mL primocin (InvivoGen, cat. ant-pm-2), 10% defined fetal bovine serum, heat inactivated (HyClone Laboratories Inc., cat. SH30070.03HI), 50% L-WRN conditioned media (ATCC, cat. CRL-3276), 1.25 mM N-Acetyl-L-cysteine (Sigma-Aldrich, cat. A9165), 10 mM nicotinamide (Sigma-Aldrich, cat. N0636), 1X B-27 supplement (Thermo Fisher Scientific, cat. 17504044), 1X N-2 supplement (Thermo Fisher Scientific, cat. 17502048), 10 microM Y-27632 dihydrochloride (Tocris Bioscience, cat. 1254), and 50 ng/mL human EGF recombinant protein (Thermo Fisher Scientific, cat. PHG0311). The 485176-168-R4-J1-PDC line was cultured in Panc media, which includes all 6C/Colon 1B media components plus 100 ng/mL human FGF-10 (Thermo Fisher Scientific, cat. 100-26), 500 nM SB-431542 (Selleckchem, cat. S1067), and gastrin (Tocris, cat. 3006).
[…]

C#Cc1c(F)ccc2cc(O)cc(-c3ncc4c(N5CC6CCC(C5)N6)nc(OCC56CCCN5CC(F)C6)nc4c3F)c12 (centres undefined)
inactive: viability, T/C (compound 0.0316 µM) 92.8% and 104% and 99.7% | viability, T/C (compound 0.1 µM) 74.4% and 90.1% and 92.7% | viability, T/C (compound 0.316 µM) 58.9% and 82.1% and 77.1% | viability, T/C (compound 1 µM) 40.6% and 62.5% and 67.6% | viability, T/C (compound 3.16 µM) 37.8% and 70.5% and 53.1% | viability, T/C (compound 10 µM) 30.2% and 42.8% and 41.5%

C=CC(=O)N1CCN(c2nc(=O)n(-c3c(C)ccnc3C(C)C)c3nc(-c4c(O)cccc4F)c(F)cc23)C(C)C1 (centres undefined)
> 10000 nM: IC50 (curve of compound)
inactive: viability, T/C (compound 0.0316 µM) 96.6% and 99.6% and 101% | viability, T/C (compound 0.1 µM) 94.5% and 96.4% and 104% | viability, T/C (compound 0.316 µM) 114% and 106% and 105% | viability, T/C (compound 1 µM) 111% and 110% (2×) | viability, T/C (compound 3.16 µM) 120% and 113% and 117% | viability, T/C (compound 10 µM) 109% and 101% and 114%

C=CCn1c(=O)c2cnc(Nc3ccc(N4CCN(C)CC4)cc3)nc2n1-c1cccc(C(C)(C)O)n1
8.94% and 7.14% and 6.33%: viability, T/C (compound 10 µM)
12.8% and 11.1% and 8.08%: viability, T/C (compound 3.16 µM)
inactive: viability, T/C (compound 0.0316 µM) 98.3% and 95.2% and 87.7% | viability, T/C (compound 0.1 µM) 73% and 67% and 53.4% | viability, T/C (compound 0.316 µM) 32% and 32.6% and 26.9% | viability, T/C (compound 1 µM) 20.9% and 19.1% and 16.4%
196 nM and 180 nM and 115 nM: IC50 (curve of compound)

CC(=O)O[C@H]1C(=O)[C@@]2(C)[C@H]([C@H](OC(=O)c3ccccc3)[C@]3(O)C[C@H](OC(=O)[C@H](O)[C@@H](NC(=O)c4ccccc4)c4ccccc4)C(C)=C1C3(C)C)[C@]1(OC(C)=O)CO[C@@H]1C[C@@H]2O
< 31.6 nM: IC50 (curve of compound)
inactive: viability, T/C (compound 0.0316 µM) 29.9% and 31.4% and 22.4% | viability, T/C (compound 0.1 µM) 25.7% and 26.3% and 18.2% | viability, T/C (compound 0.316 µM) 25.7% and 20.8% and 15.6% | viability, T/C (compound 1 µM) 22.3% and 19.5% and 11.7% | viability, T/C (compound 3.16 µM) 22.6% and 20.4% and 11% | viability, T/C (compound 10 µM) 26.4% and 22.7% and 16.2%

CC(C)(O)C1CCC(Nc2ccc3ncc(-c4cccc(C(F)(F)F)c4)n3n2)CC1 (centres undefined)
inactive: viability, T/C (compound 0.0316 µM) 98.3% and 102% and 86% | viability, T/C (compound 0.1 µM) 86.1% and 89.2% and 65.1% | viability, T/C (compound 0.316 µM) 76.1% and 82.5% and 72.4% | viability, T/C (compound 1 µM) 63.5% and 63.8% and 49.3% | viability, T/C (compound 3.16 µM) 47.9% and 49% and 37.8% | viability, T/C (compound 10 µM) 61.8% and 58% and 41.8%
> 10000 nM and 1170 nM: IC50 (curve of compound)

CC(C)n1c(=O)n(C)c2cnc3cc(F)c(-c4ccc(OCCCN5CCCCC5)nc4)cc3c21
inactive: viability, T/C (compound 0.0316 µM) 96.3% and 102% and 96.4% | viability, T/C (compound 0.1 µM) 87.4% and 89.6% and 75.7% | viability, T/C (compound 0.316 µM) 94.5% and 98.5% and 85.1% | viability, T/C (compound 1 µM) 101% and 94.2% and 96.9% | viability, T/C (compound 3.16 µM) 98.9% and 96.3% and 105% | viability, T/C (compound 10 µM) 67.4% and 66.7% and 62.4%
> 10000 nM: IC50 (curve of compound)

CC1COCCN1c1cc(-c2ccnn2C)c2ccnc(-c3ccn[nH]3)c2n1 (centres undefined)
inactive: viability, T/C (compound 0.0316 µM) 98.3% and 92.2% and 83.5% | viability, T/C (compound 0.1 µM) 55.4% and 45.4% and 34.2% | viability, T/C (compound 0.316 µM) 26% and 26.5% and 18% | viability, T/C (compound 1 µM) 19.7% and 28.9% and 18.2% | viability, T/C (compound 3.16 µM) 25.6% and 25.3% and 21.7% | viability, T/C (compound 10 µM) 30% and 31.4% and 23.9%
124 nM and 89.3 nM and 69.2 nM: IC50 (curve of compound)

CC1COCCN1c1cc(C2(O)CC3CCC(C2)O3)c2cnn(-c3ccn[nH]3)c2n1 (centres undefined)
56.8 nM and 79 nM and 82.7 nM: IC50 (curve of compound)
inactive: viability, T/C (compound 0.0316 µM) 71.4% and 88.3% and 80.1% | viability, T/C (compound 0.1 µM) 28.2% and 38.6% and 42.2% | viability, T/C (compound 0.316 µM) 23.5% and 28.2% and 31.8% | viability, T/C (compound 1 µM) 21.8% and 24.9% and 25.9% | viability, T/C (compound 3.16 µM) 19.8% and 24.2% and 26.4% | viability, T/C (compound 10 µM) 14.5% and 15.5% and 18.8%

CC1COCCN1c1cc(C2(S(C)(=N)=O)CC2)nc(-c2ccnc3[nH]ccc23)n1 (centres undefined)
2420 nM and 2690 nM and 5210 nM: IC50 (curve of compound)
inactive: viability, T/C (compound 0.0316 µM) 95.4% and 101% (2×) | viability, T/C (compound 0.1 µM) 98.2% and 91% and 98.3% | viability, T/C (compound 0.316 µM) 96% and 99.7% and 94.1% | viability, T/C (compound 1 µM) 86.7% and 83.5% and 77.8% | viability, T/C (compound 3.16 µM) 39% and 44.6% and 81.2% | viability, T/C (compound 10 µM) 24.2% and 26.8% and 16.7%

CCCS(=O)(=O)Nc1ccc(F)c(C(=O)c2c[nH]c3ncc(-c4ccc(Cl)cc4)cc23)c1F
inactive: viability, T/C (compound 0.0316 µM) 107% and 95.3% and 95.8% | viability, T/C (compound 0.1 µM) 101% and 100% and 102% | viability, T/C (compound 0.316 µM) 101% and 97.4% and 107% | viability, T/C (compound 1 µM) 97.1% and 102% and 107% | viability, T/C (compound 3.16 µM) 76% and 70.9% and 76.2% | viability, T/C (compound 10 µM) 54.1% and 46.8% and 37.6%
> 10000 nM and 8570 nM and 6910 nM: IC50 (curve of compound)

CC[C@@]1(O)C(=O)OCc2c1cc1n(c2=O)Cc2cc3c(CN(C)C)c(O)ccc3nc2-1
inactive: viability, T/C (compound 0.000999 µM) 105% (2×) and 108% | viability, T/C (compound 0.00316 µM) 94.7% and 93.8% and 94.1% | viability, T/C (compound 0.00999 µM) 98% and 95.1% and 105% | viability, T/C (compound 0.0316 µM) 84.5% and 87.9% and 69.8% | viability, T/C (compound 0.0999 µM) 43.6% and 53.2% and 39.2% | viability, T/C (compound 0.316 µM) 49.1% and 51.8% and 48.5%
89.5 nM and > 316 nM and 76 nM: IC50 (curve of compound)

CCc1c2c(nc3ccc(O)cc13)-c1cc3c(c(=O)n1C2)COC(=O)[C@]3(O)CC
inactive: viability, T/C (compound 0.000999 µM) 65.9% and 72.5% and 67.1% | viability, T/C (compound 0.00316 µM) 36% and 43.4% and 27.6% | viability, T/C (compound 0.00999 µM) 44% and 61.2% and 38.6% | viability, T/C (compound 0.0316 µM) 36% and 47.2% and 30.2% | viability, T/C (compound 0.0999 µM) 27% and 38.1% and 23.1% | viability, T/C (compound 0.316 µM) 16.4% and 21.9% and 12.8%

CN(C)c1ccc(Nc2c3ccc(NC(=O)CCN4CCCC4)cc3nc3cc(NC(=O)CCN4CCCC4)ccc23)cc1
inactive: viability, T/C (compound 0.0316 µM) 102% [middle of 12 runs] | viability, T/C (compound 0.1 µM) 101% [middle of 12 runs] | viability, T/C (compound 0.316 µM) 99.9% [middle of 11 runs] | viability, T/C (compound 1 µM) 90% [middle of 12 runs] | viability, T/C (compound 3.16 µM) 86.2% [middle of 12 runs] | viability, T/C (compound 10 µM) 86% [middle of 12 runs]
> 10000 nM: IC50 (compound alone, run of 03/26/2024)
